Experiments:
[1] = system: ERK1/2; experiment: Insulin-stimulated phosphorylation of ERK1/2 in OV2008 cells, Western blot; type: cell-based, human; conditions: 10 μg/ml, insulin 200 nM
Description: FIGS. 10A-10B. Effect of L-4F on the insulin-stimulated activation of downstream signaling molecules in OV2008 cells. After an overnight starvation, OV2008 cells were treated with L-4F (10 μg/ml) for 1 h, and insulin was added at a final concentration of 200 nM. Cell lysates were collected at various time points and subjected to Western blot analysis. FIG. 10A, L-4F inhibits insulin-stimulated phosphorylation of p70s6 kinase and subsequent HIF-1α expression in OV2008 cells. FIG. 10B, effect of L-4F on insulinstimulated phosphorylation of ERK1/2 and Akt in OV2008 cells.
Western blot analyses were performed as described previously (Gao et al., 2011). In brief, cell lysates were collected in a lysis buffer containing 0.1 MNaCl, 5 mM EDTA, 50 μM sodium orthovanadate, 1% Triton X-100, and protease inhibitor tablet (Roche Diagnostics, Indianapolis, Ind.) in 50 mM Tris buffer, pH 7.5, loaded onto 4 to 12% Bis-Tris gel (Invitrogen), transferred to polyvinylidene difluoride membrane, and incubated with the appropriate antibodies. […]

[2] = system: HIF-1α; experiment: HIF-1α protein expression in human ovarian cancer cell lines, Western blot; type: cell-based
Description: OV2008 cells were cultured in RPMI 1640 media with 10% fetal bovine serum, penicillin (100 U/ml), streptomycin (100 μg/ml), 1× minimal essential medium nonessential amino acid solution (Invitrogen, Carlsbad, Calif.), and insulin (0.25 U/ml) (Invitrogen). CAOV-3 cells were cultured in complete media consisting of Dulbecco's modified Eagle's medium with high glucose and L-glutamine (2 mM), 10% fetal bovine serum, penicillin (100 U/ml), streptomycin (100 μg/ml), and insulin (0.02 U/ml). To create hypoxic conditions, cells were transferred to a hypoxic chamber (model 3130; Thermo Fisher Scientific, Waltham, Mass.), where they were maintained at 37° C. in an atmosphere containing 5% CO2, 1% O2, and 94% N2. L-4F (the peptide Ac-D-W-F-K-A-F-Y-D-K-V-A-E-K-F-K-E-A-F-NH2 (SEQ ID NO: 12) synthesized from all L amino acids) was dissolved in water at 1 mg/ml (freshly prepared every time) and used between 1 and 10 μg/ml. L-5F was synthesized by Peptisyntha Inc. (Torrance, Calif.), dissolved in ABCT buffer (50 mM ammonium bicarbonate, pH 7.0, containing 0.1 mg/ml Tween 20) at 1 mg/ml, and diluted to the required concentrations before use. Cobalt chloride (CoCl2), insulin, cycloheximide (CHX), and N-(benzyloxycarbonyl)leucinylleucinylleucinal-Z-Leu-Leu-Leu-al (MG-132) were purchased from Sigma-Aldrich (St. Louis, Mo.). LPA (Avanti Polar Lipids, Alabaster, Ala.) in chloroform was dried as recommended by the manufacturer, dissolved in ethanol at a concentration of 20 mM as a stock solution, and diluted to the required concentrations in the corresponding cell culture media before use.
Western blot analyses were performed as described previously (Gao et al., 2011). In brief, cell lysates were collected in a lysis buffer containing 0.1 MNaCl, 5 mM EDTA, 50 μM sodium orthovanadate, 1% Triton X-100, and protease inhibitor tablet (Roche Diagnostics, Indianapolis, Ind.) in 50 mM Tris buffer, pH 7.5, loaded onto 4 to 12% Bis-Tris gel (Invitrogen), transferred to polyvinylidene difluoride membrane, and incubated with the appropriate antibodies. Anti-pThr^202/Tyr^204-Erk, anti-Erk, anti-pThr^389-p70 S6 kinase, anti-p70 S6 kinase, anti-pSer^473-Akt, and anti-Akt antibodies were purchased from Cell Signaling Technology (Danvers, Mass.); mouse anti-human HIF-1α antibody was purchased from BD Pharmingen (San Diego, Calif.); rabbit anti-mouse HIF-1α antibody was purchased from Abcam Inc. (Cambridge, Mass.); and anti-GAPDH antibody was purchased from Santa Cruz Biotechnology Inc. (Santa Cruz, Calif.).

[3] = reference (17); cited from earlier work
[4] = system: cis-platinum-resistant human ovarian cancer cells; conditions: reference (17); cited from earlier work
[5] = system: HIF-1α; experiment: Hypoxia response element (HRE) luciferase reporter assay in OV2008 cells; type: cell-based, human
Description: In brief, OV2008 cells were plated at 2×10^5 cells per well in a six-well plate and grown in complete media overnight. Then, pGL3-Epo-hypoxia response element (HRE)-Luc plasmid was transfected into cells by using Lipofectamine 2000 (Invitrogen). After 24 h, cells were starved overnight and subjected to L-4F treatment in the presence or absence of stimulators. A reporter assay system (Promega, Madison, Wis.) was used for the measurement of luciferase activity.

[6] = system: HIF-1α; experiment: ID8 flank tumor model, HIF-1α immunohistochemistry; type: in vivo, mouse; conditions: C57BL/6J mice, ID8 tumors; 10 mg/kg s.c. daily for 3 weeks; vs sc-4F
Description: (§1) Nine-week-old C57BL/6J female mice were given a 0.5-ml subcutaneous injection of 5×10^6 ID8 cells prepared as a single cell suspension in PBS mixed with an equal volume of cold Matrigel (BD Biosciences, San Jose, Calif.). After 2 weeks, mice started to receive scrambled 4F peptide (sc-4F) or L-4F (10 mg/kg) by subcutaneous injection at a site distant from the site where the ID8 cells were injected daily for 3 weeks. After 3 weeks, the mice were sacrificed for tumor collection and further analyses.
(§2) Frozen tumor tissues were sectioned at a thickness of 5 μm and fixed with cold acetone for 10 min at −20° C. The sections were blocked with 10% normal goat serum and 4% bovine serum albumin prepared in PBS for 3 h and immediately incubated with rabbit anti-mouse polyclonal HIF-1α antibody (1:200) (Abcam Inc.) or rat anti-mouse monoclonal CD31 antibody (1:25) (Abcam Inc.) overnight at 4° C. The sections were then incubated with corresponding biotinylated secondary antibodies (Vector Laboratories) for 30 min at room temperature followed by incubation with Vectastain ABC Elite reagents (Vector Laboratories) to visualize the staining. Finally, sections were lightly counterstained with hematoxylin, dehydrated, and coverslipped with Vecta-Mount solution (Vector Laboratories).

[7] = system: mouse ovarian cancer cells (ID-8 cells); conditions: reference (17); cited from earlier work
[8] = system: CD31; experiment: ID8 flank tumor model, CD31 staining of vessels; type: in vivo, mouse; conditions: C57BL/6J mice, 10 mg/kg s.c. daily for 3 weeks, vs control group
Description: as §1, §2

[9] = system: cyclin D1 and cyclin A; experiment: Western blot of cyclin D1 and cyclin A in CT26 cells; type: cell-based, mouse
Description: Total cell proteins were collected after treatment in cell lysis buffer containing 0.1 mol/L NaCl, 5 mmol/L EDTA, 50 mmol/L sodium orthovanadate, 1% Triton X-100, and protease inhibitor tablet in 50 mmol/L Tris buffer (pH 7.5). Twenty micrograms of total proteins were separated by SDS-PAGE and transferred onto nitrocellulose membrane and followed by incubation with primary antibody at 4° C. in 5% skim milk and 0.1% Tween-20. Anti-cyclin D1 and anti-cyclin A rabbit polyclonal antibodies were used at 1:1,000 dilution, and anti-b-actin polyclonal antibody was used at 1:2,000 dilution.

Substance: Ac-DWFKAFYDKVAEKFKEAF-NH2 [L-4F, Ac-D-W-F-K-A-F-Y-D-K-V-A-E-K-F-K-E-A-F-NH2]
- insulin-stimulated activation of ERK1/2 [1]: inhibited activation
- CoCl2- and insulin-induced HIF-1α expression ([2]; CAOV-3 cells): dose-dependently inhibited
- HIF-1α expression, post-treatment ([2]; OV2008 cells stimulated first with CoCl2 or insulin 3 h or 24 h, 10 μg/ml): significantly decreased
- hypoxia-induced (low oxygen 1% O2, CoCl2) HIF-1α protein expression ([2]; OV2008 cells, pretreatment): dose-dependently suppressed
- CoCl2- and insulin-induced HIF-1α expression ([2]; SKOV3 cells): dose-dependently inhibited
- binding of LPA [3]: binds
- viability and proliferation [4]: reduced
- transcription of downstream HIF-1α target genes (HRE reporter), post-treatment ([5]; OV2008 cells stimulated first with CoCl2 or insulin, 10 μg/ml): inhibition of the transcription
- CoCl2- and insulin-mediated induction of HRE luciferase activity ([5]; OV2008 cells, 10 μg/ml pretreatment 1 h): significantly inhibited
- HIF-1α expression in tumor tissues [6]: decreased
- viability and proliferation [7]: reduced
- number of vessels in tumors [8]: reduction in the number of vessels
- expression of cyclin D1 and cyclin A [9]: significantly lower

Reference: US9241976B2, “Use of HDL-related molecules to treat and prevent proinflammatory conditions” (THE REGENTS OF THE UNIVERSITY OF CALIFORNIA, priority 2011, dated 2016)
